Data on 4 compounds can be found in patent publication US10208007B2, “Use of strigolactones and strigolactone analogs for treating proliferative conditions” (The State of Israel, Ministry of Agriculture & Rural …, priority 2011, dated 2019).

One data set deals with Candida oleophila. Briefly: Yeast cell culture growth (OD). It is filed as cell-based. The note with it: 10 μM, apparent 8 hours after application. As for the experimental part:
Saccharomyces cerevisiae and Candida oleophila yeast cells were grown overnight in a reach nutrient media at 28° C., at 150 rpm. Following, they were diluted to 0.4 OD in low nutrient media (Lily) and were divided into 96 wells. The cells were treated with GR-24 or ST-362, at the indicated concentrations. Cell culture growth was monitored every hour for 17 hours, at 28° C., with gentle shake before each OD read. OD was determined using fluorometer. Statistical differences between curves were analyzed using compareGrowthCurves function from the Statistical Modeling package, statmod (http://bioinf.wehi.edu.au/software/compareCurves/), significance was determined once P≤0.05.

In the next data set the test system is MCF-7 cells. In words: Stability in aqueous solution (media, activity on MCF-7 by XTT). It is filed as physicochemical, human. Particulars: stored at 4° C. for 3 days. How it is done: To assess strigolactone analogs stability in aqueous solution, each strigolactone analog was diluted to the desired concentration in media and stored at 4° C. for 3 days, at which time the strigolactone analog containing media was overlayed onto MCF-7 cells seeded into 96 well plates in phenol free DMEM supplemented with 5% charcoal stripped serum. After 3 days growth and viability was assessed (XTT, ATCC) and results compared to cells treated with freshly diluted strigolactone analog (FIG. 15) (absorbance readings presented as % of controls. Average+SD). […] For this reason all strigolactone analogs were diluted fresh from acetone stocks into media to desired concentrations and overlayed onto cells within 1 hour. Where necessary, media was refreshed every 3 days.
(Tetrazolium dyes change colour on reduction, which living cells bring about.)

In another data set the test system is DU145. Briefly: Cell cycle analysis with strigolactone removal. Format: cell-based, human. Particulars: for G2/M fraction: 24 hours, from 18%; for G2/M fraction 48 hours following removal: vehicle control 28.5%. As for the experimental part: Adherent cells were trypsinyzed, washed twice with PBS and filtered through a […] cell sieve. DNA content was assessed by flow cytometry. Cells were seeded at densities of 1.5×10^5 cells (MDA-MB-231, MDA-MB-436), or 4×10^5 cells (MCF-7 and MCF10A), or 2×10^5 cells (SW480, HT-29), or 5×10^5 cells (HCT116), per well in DMEM with 10% FBS in 6-well plate culture dishes. […] After 48 hours, cells were washed twice with PBS (pH 7.4), centrifuged at 360 g for 10 minutes at 4° C., and fixed in chilled ethanol (70%; v/v in PBS) with gentle vortex mixing. To determine their DNA contents, the cells were stained with 40 μg/ml propidium iodide (hereinafter PI) and analyzed using a FACSCalibur flow cytometer and CellQuest analysis software (Becton Dickinson, San Jose, Calif.). Where phosphoHistone-H3 staining was carried out, cells were incubated with polyclonal antibody against phosphoHistone H3 and then with secondary Goat anti-rabbit IgG-conjugated to FITC prior to PI staining.
To determine whether the strigolactone analogs induced G2 arrest, is also reversible upon strigolactone removal, DU145 cells were treated with MEB-55 for 24 hours, washed twice in PBS and then over-layed with fresh growth media minus MEB-55 and incubated for a further 48 hours (FIG. 17G).

Another data set has as its system pAKT. Briefly: Immunoblot with densitometric quantification. It is filed as cell-based, human. As for the experimental part: Protein concentration was determined using the BCA Protein Assay (Pierce), and 20-50 μg of lysate were separated in a 4-12% SDS-PAGE gel. After transfer, membranes were blocked for 15-30 min at room temperature in 5% BSA (Sigma) in Tris-buffered saline containing 0.1% Tween-20. Primary antibody was incubated for either 1.5 hours at room temperature or overnight at 4° C. Secondary antibody was incubated for 30-45 min at room temperature, and proteins were visualized with West Pico Stable (Pierce). All antibodies were used at 1:1000 dilution unless otherwise stated. pT308AKT, AKT, pT180/Y182, pT183/Y185 P38MAPK, pP38MAPK, pT202/Y204 pERK1/2, ERK1, pT183/Y185, pJNK1/2, JNK1, pT71ATF2, pT581MSK1, pT14 Cdc2, Cdc2, pT68Chk2 (cell signaling), pT334MAPKAPK, pS82HSP27 (Cell Signaling Technology, Danvers, Mass.), α-tubulin (Biomarkers, 1:50,000), Cyclin B1 (Santa Cruz Biotechnologies) and horseradish peroxidase-conjugated anti-rabbit IgG and anti-mouse IgG (1:5,000, Pierce).
Densitometric quantifications were carried out using ImageJ software (NIMH).
[…] The family of MAPK enzymes plays a pivotal role in cell growth, survival and cellular stress responses. […]
Background: In western blotting, separated proteins are transferred to a membrane and probed.

The subject of another data set is ALDH1. In words: Aldefluor ALDH expression. It is filed as cell-based, human. The note with it: MCF-7 primary mammospheres; reduced from 6%. As for the experimental part:
MCF-7 mammospheres were trypsinized, gently vortexed and passed through a 40 uM cell filter to produce single cell suspensions. Cells (5×10^5) were washed and re-suspended in growth media (Lonza). To identify the Aldefluor-stained cell population with ALDH1 enzymatic activity, the Aldefluor kit (Stem Cell Technologies), which is designed for optimal identification and isolation of stem cells through specific interaction with human ALDH1 was used. Briefly, cells were suspended in Aldefluor assay buffer containing uncharged ALDH1-substrate, BODIPY-aminoacetaldehyde (BAAA), and incubated for 45 min at 37° C., with gently vortexing every 15 min. BAAA is taken up by living cells through passive diffusion and then converted by intracellular ALDH into a negatively charged reaction product BODIPY-aminoacetate, which is retained inside cells expressing high levels of ALDH1, causing the cells to become brightly fluorescent. Fluorescent ALDH1-expressing cells were detected in the green fluorescence channel (520-540 nm) of a FACScan instrument (BD Biosciences). […] PI (Sigma) fluorescence was detected using the orange fluorescence channel. Cells incubated with BAAA and DEAB were used to establish the baseline fluorescence of cells and ALDH1-positive fraction. Data were analyzed by using Cell Quest software (BD Biosciences). […]

Each structure is given as a SMILES string.

As to `CC1=CC(O/C=C2/C(=O)c3c(c4cc(-c5scc6c5OCCO6)ccc4n3C)C2C)OC1=O` (stereo not drawn) [ST-362, (2E)-2-[(2,5-dihydro-4-methyl-5-oxofuran-2-yloxy)methylene]-1,2-dihydro-7-(2,3-dihydrothieno[3,4-b][1,4]dioxin-7-yl)-1,4-dimethyl-cyclopenta[b]indole-3-(4H)-one], the Cell culture growth entry in the data set on Candida oleophila was “reduction of cell culture growth”.

For the compound `CC1=CC(O/C=C2\Cc3c(n(C)c4ccccc34)C2=O)OC1=O` (racemic) [EG-5, (±) (2E)-4-methyl-2-(4-methyl-5-oxo-2,5-dihydrofuran-2-yloxymethylene)-1,4-dihydro-2H-cyclopenta[b]indol-3-one], the “Stability in aqueous solution: activity versus freshly diluted analog” value in the data set with MCF-7 cells is “completely failed to inhibit MCF-7 growth”.

Consider `CC1=CC(O/C=C2\Cc3c(n(C)c4cc(-c5cccs5)ccc34)C2=O)OC1=O` (racemic) [MEB-55, (±) 2E-4-methyl-2-(4-methyl-5-oxo-2,5-dihydrofuran-2-yloxymethylene)-6-thiophen-2-yl-1,4-dihydro-2H-cyclopenta[b]indol-3-one], for which, in the data set with DU145 (DU145, 5 ppm), the G2/M fraction worked out at 46% and the “G2/M fraction 48 hours following removal” value stood at 29%. Besides, in the data set on DU145 (DU145, 10 ppm), the G2/M fraction is reported as 50% and the “G2/M fraction 48 hours following removal” value was 29%. In addition, the pAKT levels decrease in the data set with pAKT (DU145, 8 hours) was 6 fold. Further, the pAKT levels entry in the data set with pAKT (DU145, 24 hours) is on record as “undetectable levels”.

For the compound `CC1=C[C@H](O/C=C2/C(=O)O[C@@H]3c4ccccc4C[C@H]23)OC1=O` (relative stereo) [GR-24, (3aR*,8bS*,E)-3-(((R*)-4-methyl-5-oxo-2,5-dihydrofuran-2-yloxy)methylene)-3,3a,4,8b-tetrahydro-2H-indeno[1,2-b]furan-2-one], the “ALDH activity (ALDH positive cells) after treatment” value with ALDH1 came out at 2%.
